The text below walks through data of ChEMBL document CHEMBL1131321, “Pharmacophoric requirements for cannabinoid side chains: multiple bond and C1'-substituted delta 8-tetrahydrocannabinols” (J Med Chem, 1998).

The target of one test is Cannabinoid receptor 2 (Mus musculus, UniProt P47936). As to the kind of experiment: The compound was evaluated for its affinity towards cannabinoid receptor 2 (CB2) in mouse spleen. It is filed as tissue-based.
A further test addresses Cannabinoid receptor 1 (Rattus norvegicus, UniProt P20272). Description: The compound was evaluated for its affinity towards cannabinoid receptor 1 (CB1) in rat brain. It is filed as tissue-based.

Cannabinoid receptor 1, sequence (P20272 whole entry): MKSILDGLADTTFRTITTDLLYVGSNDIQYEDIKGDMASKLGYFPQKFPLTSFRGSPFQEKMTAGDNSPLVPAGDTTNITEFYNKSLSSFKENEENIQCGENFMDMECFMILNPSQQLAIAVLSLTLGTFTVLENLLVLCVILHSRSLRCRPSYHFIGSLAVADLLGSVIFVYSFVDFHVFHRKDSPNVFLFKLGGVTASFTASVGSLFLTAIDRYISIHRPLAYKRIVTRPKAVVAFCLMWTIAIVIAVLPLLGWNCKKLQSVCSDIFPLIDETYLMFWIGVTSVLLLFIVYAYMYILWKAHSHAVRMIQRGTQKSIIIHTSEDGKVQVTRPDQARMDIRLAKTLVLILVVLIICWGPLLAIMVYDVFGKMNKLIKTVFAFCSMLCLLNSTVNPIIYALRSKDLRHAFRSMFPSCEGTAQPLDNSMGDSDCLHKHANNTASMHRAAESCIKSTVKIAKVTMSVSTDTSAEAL
Cannabinoid receptor 2, sequence (P47936 whole entry): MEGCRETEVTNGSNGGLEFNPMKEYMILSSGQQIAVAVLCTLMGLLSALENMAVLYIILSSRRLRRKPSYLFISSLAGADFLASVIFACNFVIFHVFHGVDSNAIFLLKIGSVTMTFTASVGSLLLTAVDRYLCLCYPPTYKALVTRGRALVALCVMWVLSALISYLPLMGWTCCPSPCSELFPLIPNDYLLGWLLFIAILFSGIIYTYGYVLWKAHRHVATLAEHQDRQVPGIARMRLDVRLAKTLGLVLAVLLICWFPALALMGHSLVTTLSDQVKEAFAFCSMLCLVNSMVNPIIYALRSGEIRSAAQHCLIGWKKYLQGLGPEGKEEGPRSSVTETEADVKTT

In the case of `CCCCCCC(O)c1cc(O)c2c(c1)OC(C)(C)[C@@H]1CC=C(C)C[C@@H]21` (stereo partly specified), the inhibition constant Ki (usually the equilibrium dissociation constant of an inhibitor or competing ligand from its target) on Cannabinoid receptor 2 (read-out: Ki) was determined as 65.6 nM; on Cannabinoid receptor 1 it was 86.4 nM.
`CCCCCCC1(c2cc(O)c3c(c2)OC(C)(C)[C@@H]2CC=C(C)C[C@@H]32)SCCS1`: the affinity on Cannabinoid receptor 2, expressed as Ki, was 0.52 nM.
As to `CCCCCCC(=O)c1cc(O)c2c(c1)OC(C)(C)[C@@H]1CC=C(C)C[C@@H]21`, the inhibitory constant (Ki) on Cannabinoid receptor 2 (read-out: Ki) is 83.7 nM; on Cannabinoid receptor 1, 21.7 nM.
`CCCCCCC1(c2cc(O)c3c(c2)OC(C)(C)[C@@H]2CC=C(C)C[C@@H]32)CC1`: the Ki at Cannabinoid receptor 2 (read-out: Ki) was found to be 3.3 nM; on Cannabinoid receptor 1, 2.17 nM.
Take `C=C(C)[C@@H]1CCC(C)=C[C@H]1c1c(O)cc(C2(CCCCCC)SCCS2)cc1O`: the Ki at Cannabinoid receptor 2 (read-out: Ki) came to 50.4 nM; on Cannabinoid receptor 1, 136 nM.
The corresponding values for `CCCCCC#Cc1cc(O)c2c(c1)OC(C)(C)[C@@H]1CC=C(C)C[C@@H]21` are 3.1 nM and 0.65 nM.
